Experimental findings from ChEMBL document CHEMBL1138534, “Cellular effects of reversed amidines on Trypanosoma cruzi” (Antimicrob Agents Chemother, 2007) are described below.

Calls of active or inactive are those of the source. The calls are words filed in the database; no cut-off is given here. Where only a bound is given, the exact number is not on record here.

Test [1] deals with Trypanosoma cruzi. The experiment in a line: Antitrypanosomal activity against Trypanosoma cruzi Y bloodstream trypomastigotes assessed as parasite death at 3.5 uM after 24 hrs by light microscope. It is filed as functional.
For test [2], the system named is Trypanosoma cruzi. The experiment in a line: Antitrypanosomal activity against Trypanosoma cruzi Y bloodstream trypomastigotes at 1.18 uM after 2 hrs by light microscope. Type of test: functional.
Test [3] deals with Trypanosoma cruzi. Briefly: Antitrypanosomal activity against Trypanosoma cruzi Y bloodstream trypomastigotes assessed as parasite lysis at 3.5 uM after 24 hrs by light microscope. It is filed as functional.
The subject of test [4] is Trypanosoma cruzi. The experiment in a line: Antitrypanosomal activity against Trypanosoma cruzi Y bloodstream trypomastigotes after 24 hrs by light microscope. Type of test: functional, organism-based.
Test [5] concerns Trypanosoma cruzi. Briefly: Antitrypanosomal activity against Trypanosoma cruzi Y amastigotes after 24 hrs by light microscope. Type of test: functional, organism-based.
Test [6] has as its system Trypanosoma cruzi. Briefly: Antitrypanosomal activity against Trypanosoma cruzi Y bloodstream trypomastigotes assessed as swelling in mitochondria and kinetoplast after 24 hrs by transmission electron micrograph. Type of test: functional, organism-based.
Test [7] concerns Trypanosoma cruzi. Briefly: Antitrypanosomal activity against Trypanosoma cruzi Y bloodstream trypomastigotes assessed as alteration in nuclear morphology after 24 hrs by transmission electron micrograph. Type of test: functional, organism-based.
The test system of test [8] is Trypanosoma cruzi. The experiment in a line: Antitrypanosomal activity against Trypanosoma cruzi Y bloodstream trypomastigotes assessed as microtubule axoneme structure after 24 hrs by transmission electron micrograph. Type of test: functional, organism-based.
Test [9] has as its system Trypanosoma cruzi. Briefly: Antitrypanosomal activity against Trypanosoma cruzi Y bloodstream trypomastigotes assessed as reduction in mitochondrial membrane potential at IC50 after 24 hrs by flow cytometry. Type of test: functional. Details: scale not given: the % may be the effect or the level left. For orientation: In flow cytometry, cells or beads pass a laser one at a time.

In test [10] the test system is Trypanosoma cruzi. The experiment in a line: Antitrypanosomal activity against Trypanosoma cruzi Y amastigotes assessed as alteration in nuclear morphology at IC50 after 24 hrs by transmission electron microscopy. It is filed as functional, organism-based.
Test [11] deals with Trypanosoma cruzi. Briefly: Antitrypanosomal activity against Trypanosoma cruzi Y amastigotes assessed as vacuolization and loss of cytoplasm components at IC50 after 24 hrs by transmission electron microscopy. It is filed as functional, organism-based.
In test [12] the test system is Trypanosoma cruzi. The experiment in a line: Antitrypanosomal activity against Trypanosoma cruzi Y amastigotes assessed as disorganization of kinetoplast at IC50 after 24 hrs by transmission electron microscopy. Type of test: functional, organism-based.
Test [13] deals with Trypanosoma cruzi. The experiment in a line: Antitrypanosomal activity against Trypanosoma cruzi Y amastigotes assessed as intense vesicular profile in flageller pocket at IC50 after 24 hrs by transmission electron microscopy. Type of test: functional, organism-based.
The subject of test [14] is Trypanosoma cruzi. The experiment in a line: Antitrypanosomal activity against Trypanosoma cruzi Y bloodstream trypomastigotes assessed as parasite death at 32 uM after 2 hrs by light microscope. Type of test: functional.
Test [15] deals with Trypanosoma cruzi. The experiment in a line: Antitrypanosomal activity against Trypanosoma cruzi Y bloodstream trypomastigotes assessed as parasite death at 32 uM after 24 hrs by light microscope. Type of test: functional.
For test [16], the system named is Trypanosoma cruzi. The experiment in a line: Antitrypanosomal activity against Trypanosoma cruzi Y bloodstream trypomastigotes assessed as alteration in microtubule organization after 24 hrs by transmission electron micrograph. Type of test: functional, organism-based.
Test [17] relates to Trypanosoma cruzi. Briefly: Antitrypanosomal activity against Trypanosoma cruzi Y bloodstream trypomastigotes assessed as alteration in mitochondria-kinetoplast complex after 24 hrs by transmission electron micrograph. Type of test: functional, organism-based.
The subject of test [18] is Trypanosoma cruzi. Briefly: Antitrypanosomal activity against Trypanosoma cruzi Y bloodstream trypomastigotes assessed as intracellular dilated membrane profile after 24 hrs by transmission electron micrograph. Type of test: functional, organism-based.
Test [19] concerns Trypanosoma cruzi. The experiment in a line: Antitrypanosomal activity against Trypanosoma cruzi Y amastigotes assessed as disorganization of subpellicular mitochondria at IC50 after 24 hrs by transmission electron microscopy. It is filed as functional, organism-based.
The test system of test [20] is Trypanosoma cruzi. The experiment in a line: Antitrypanosomal activity against Trypanosoma cruzi Y bloodstream trypomastigotes assessed as parasite death at 0.014 uM after 24 hrs by light microscope. It is filed as functional.
The test system of test [21] is Trypanosoma cruzi. Briefly: Antitrypanosomal activity against Trypanosoma cruzi Y amastigotes assessed as swelling and electrodense mitochondria at IC50 after 24 hrs by transmission electron microscopy. Type of test: functional, organism-based.

Take `N=C(Nc1ccc(-c2cc(-c3ccccc3)c(-c3ccc(NC(=N)c4ccccn4)cc3)o2)cc1)c1ccccn1`: the figures for the Activity in test [1], in test [2] and in [9] were 100%, 55% and 59%, respectively. The result in test [3], in [6], in test [7], in test [8], in test [10] and in test [11] was Active. For the same compound, the outcome in test [12] and in test [13] was Active. The figures for the IC50 in test [4] and in test [5] were 90 nM and 8.6 nM, respectively.

On to `COc1cc(NC(=N)N)ccc1-c1ccc(-c2ccc(NC(=N)N)cc2OC)o1`, for which the figures for the Activity in test [14] and in test [15] were 23% and 84%, respectively. For the same compound, the IC50 (usually the concentration needed to halve the response being measured) in test [4] was 19400 nM; in test [5] it was over 10600 nM. For the same compound, the result in test [6], in [16], in [8], in [17] and in [18] was Active. Moreover, the result in test [9] was inactive.

As to `Cc1ccc(C(=N)Nc2ccc(-c3ccc(-c4ccc(NC(=N)c5ccc(C)cn5)cc4OC(C)C)o3)c(OC(C)C)c2)nc1`, the outcome in test [19] was Active. The Activity was determined as 95% in [1], 50% in [3], 49% in [20] and 55% in test [9]. Moreover, the half-inhibitory concentration (IC50) in [4] came out at 15 nM; in test [5], 1140 nM.

Turning to `Cc1cc(NC(=N)c2ccccn2)ccc1-c1ccc(-c2ccc(NC(=N)c3ccccn3)cc2C)o1`, the results for the Activity in [1], in [3] and in test [9] were 95%, 55% and 54%, respectively. Further, the IC50 turned out to be 450 nM in test [4] and 240 nM in [5]. Also, the result in test [21] and in [13] was Active.
